The record followed here is US4323567A, “Arylmalonamido-1-oxadethiacephalosporins” (priority 1976, dated 1982).

Common to all, as to assay: Minimal inhibitory concentration, nutrient agar plate
The subject of assay [1] is Escherichia coli H. Format: cell-based. Conditions: inoculum size 10^8, pH 7.0, read-out: Minimal inhibitory concentration.
Assay [2] concerns E. coli JC-2. Format: cell-based. The settings on record: Escherichia coli, JC2, inoculum size 10^8, pH 7.0, read-out: Minimal inhibitory concentration.
Assay [3] relates to E. coli 377. It is filed as cell-based, Escherichia coli. Conditions: Escherichia coli, 377, inoculum size 10^8, pH 7.0, read-out: Minimal inhibitory concentration.
Assay [4] relates to E. coli 73. It is filed as cell-based, Escherichia coli. The settings on record: Escherichia coli, 73, inoculum size 10^8, pH 7.0, read-out: Minimal inhibitory concentration.
Assay [5] has as its system Serratia marsescens 13880. Format: cell-based. Conditions: Serratia, 13880, inoculum size 10^8, pH 7.0, read-out: Minimal inhibitory concentration.
The test system of assay [6] is Klebsiella pneumoniae. Format: cell-based. The settings on record: inoculum size 10^8, pH 7.0, read-out: Minimal inhibitory concentration.
For assay [7], the system named is Klebsiella sp. 363. It is filed as cell-based. The settings on record: inoculum size 10^8, pH 7.0, read-out: Minimal inhibitory concentration.
Assay [8] concerns Enterobacter cloacae 233. Format: cell-based. Conditions: Enterobacter cloacae, 233, inoculum size 10^8, pH 7.0, read-out: Minimal inhibitory concentration.
In assay [9] the test system is Proteus mirabilis PR-4. Format: cell-based. The settings on record: inoculum size 10^8, pH 7.0, read-out: Minimal inhibitory concentration.
Assay [10] has as its system P. morganii No. 9. It is filed as cell-based, Proteus morganii. Conditions: Morganella morganii, NO.9, inoculum size 10^8, pH 7.0, read-out: Minimal inhibitory concentration.
In assay [11] the test system is P. vulgaris No. 3. Format: cell-based. The settings on record: Proteus vulgaris, NO.3, inoculum size 10^8, pH 7.0, read-out: Minimal inhibitory concentration.
In assay [12] the test system is P. vulgaris CN-329. It is filed as cell-based. Conditions: Proteus vulgaris, CN329, inoculum size 10^8, pH 7.0, read-out: Minimal inhibitory concentration.
Assay [13] deals with Pseudomonas aeruginosa Denken. It is filed as cell-based. The settings on record: inoculum size 10^8, pH 7.0, read-out: Minimal inhibitory concentration.
Assay [14] relates to Ps. aeruginosa 25619. Format: cell-based, Pseudomonas aeruginosa. Conditions: Pseudomonas aeruginosa, 25619, inoculum size 10^8, pH 7.0, read-out: Minimal inhibitory concentration.
Assay [15] has as its system Ps. aeruginosa 24. It is filed as cell-based, Pseudomonas aeruginosa. Conditions: Pseudomonas aeruginosa, 24, inoculum size 10^8, pH 7.0, read-out: Minimal inhibitory concentration.
The mark [16] stands for this setting: ester, in the presence of 5% horse serum, sodium salt.

Read-outs that look alike come from different tables or passages of the source. Bounds are passed on as bounds.

Turning to `CO[C@@]1(NC(=O)C(C(=O)Oc2ccc3c(c2)CCC3)c2ccc(O)cc2)C(=O)N2C(C(=O)O)=C(CSc3nnnn3C)CO[C@@H]21` (stereo partly drawn) [III-16, 7β-[α-P-hydroxyphenyl-α-(5-indanyl)oxycarvonylacetamido]-7β-methoxy-3-(1-methyltetrazol-5-yl)thiomethyl-1-oxadethia-3-cephem-4-carboxylic acid], the MIC in [1] (setting [16]) was 0.1 mg/L; in assay [2] (setting [16]) it was 0.02 mg/L; in [3] (setting [16]) it was 0.2 mg/L; in assay [4] (setting [16]), 0.78 mg/L; in assay [5] (setting [16]), 0.39 mg/L; in assay [6] (setting [16]), 0.2 mg/L. For the same molecule, the MIC in assay [7] (SP.363, ester, in the presence of 5% horse serum, sodium salt) turned out to be 0.2 mg/L; in assay [8] (setting [16]), 0.39 mg/L; in assay [9] (PR4, ester, in the presence of 5% horse serum, sodium salt), 0.39 mg/L; in [10] (setting [16]), 0.2 mg/L; in [11] (setting [16]) it was 0.39 mg/L; in [12] (setting [16]), 0.78 mg/L. In addition, the MIC in [13] (setting [16]) turned out to be 100 mg/L; in assay [14] (setting [16]), 12.5 mg/L; in assay [15] (setting [16]), 25 mg/L.
For the molecule `CC(=O)OCC1=C(C(=O)O)N2C(=O)[C@@H](NC(=O)Cc3cccs3)[C@H]2SC1` [Cefalotin, reference compound], the MIC in assay [1] (as sodium salt) was 3.2 mg/L; in assay [2] (as sodium salt) it was 12.5 mg/L; in assay [3] (as sodium salt) it was more than 100 mg/L; in [4] (as sodium salt), more than 100 mg/L; in assay [5] (as sodium salt) it was more than 100 mg/L; in [6] (as sodium salt), 1.6 mg/L. The MIC in assay [7] (SP.363, as sodium salt) is more than 100 mg/L; in [8] (as sodium salt), more than 100 mg/L; in assay [9] (PR4, as sodium salt) it was 3.2 mg/L; in [10] (as sodium salt), more than 100 mg/L; in [11] (as sodium salt), more than 100 mg/L; in [12] (as sodium salt) it was more than 100 mg/L. The MIC in [13] (as sodium salt), in assay [14] (as sodium salt) and in [15] (as sodium salt) was more than 100 mg/L in each case.
With `CO[C@@]1(NC(=O)C(C(=O)O)c2ccsc2)C(=O)N2C(C(=O)O)=C(CSc3nnnn3C)CO[C@@H]21` (stereo partly drawn) [III-19, 7β-[α-(3-thienyl)-α-carboxyacetamido]-7α-methoxy-3-(1-methyltetrazol-5-yl)thiomethyl-1-oxadethia-3-cephem-4-carboxylic acid], the MIC in [1] (as sodium salt) was 0.025 mg/L; in assay [2] (as sodium salt) it was 0.05 mg/L; in [3] (as sodium salt) it was 0.1 mg/L; in [4] (as sodium salt), 0.2 mg/L; in assay [5] (as sodium salt) it was 0.39 mg/L; in assay [6] (as sodium salt) it was 0.2 mg/L. The MIC was 0.05 mg/L in [7] (SP.363, as sodium salt); 0.1 mg/L in assay [8] (as sodium salt); 0.2 mg/L in assay [9] (PR4, as sodium salt); 0.1 mg/L in assay [10] (as sodium salt); 0.2 mg/L in [11] (as sodium salt); 0.1 mg/L in [12] (as sodium salt). Moreover, the MIC in assay [13] (as sodium salt) was determined as 100 mg/L; in [14] (as sodium salt), 12.5 mg/L; in [15] (as sodium salt), 50 mg/L.
